Experimental data from patent publication US12473304B2, “Heterocyclic PAD4 inhibitors” (BRISTOL-MYERS SQUIBB COMPANY, priority 2020, dated 2025).

These compounds were tested against human PAD4 (hPAD4) (Homo sapiens (Human), UniProt Q9UM07) (assay: RFMS Human PAD4 Functional Assay 1). Details: RFMS assay 1; 5 nM hPAD4, 250 μM BAEE substrate, 50 μM calcium, 37° C.
Type: biochemical
How it was run: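 Citrullination product read by RapidFire triple-quad MRM against a modified-citrulline internal standard, after TCA stop and 30 min phenyl glyoxal step at 37 °C. Reaction: 250 μM BAEE, 5 nM human PAD4, 90 min at 37 °C, pH 7.5 HEPES buffer with 50 μM calcium and 5 μM TPEN, following 30 min compound–enzyme preincubation (max 50 μM).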

Sequence of human PAD4 (hPAD4) (Q9UM07 whole entry): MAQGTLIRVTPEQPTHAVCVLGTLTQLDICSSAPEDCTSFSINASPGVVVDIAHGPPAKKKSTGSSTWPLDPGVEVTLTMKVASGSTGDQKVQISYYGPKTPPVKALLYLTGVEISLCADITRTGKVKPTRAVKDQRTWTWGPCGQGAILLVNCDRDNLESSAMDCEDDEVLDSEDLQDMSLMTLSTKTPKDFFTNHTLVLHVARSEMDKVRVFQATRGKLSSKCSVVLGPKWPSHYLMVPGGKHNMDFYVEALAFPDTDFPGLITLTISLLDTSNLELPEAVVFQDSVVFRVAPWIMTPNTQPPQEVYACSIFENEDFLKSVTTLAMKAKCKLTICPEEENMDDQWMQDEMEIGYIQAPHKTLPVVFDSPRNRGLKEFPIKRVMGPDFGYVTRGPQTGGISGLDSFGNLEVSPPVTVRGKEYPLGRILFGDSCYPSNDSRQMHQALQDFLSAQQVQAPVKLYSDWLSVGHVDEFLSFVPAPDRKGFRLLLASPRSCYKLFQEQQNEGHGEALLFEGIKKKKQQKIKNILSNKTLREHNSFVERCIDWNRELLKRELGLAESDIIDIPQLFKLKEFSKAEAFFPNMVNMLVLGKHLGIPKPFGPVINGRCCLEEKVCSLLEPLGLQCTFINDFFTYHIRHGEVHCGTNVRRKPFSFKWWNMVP

IC50 [nM] | SMILES
70 | CNC(=O)c1ccc(-c2ccc3cc(-c4nn5cc(C(=O)N6CC7CCC6[C@@H]7N)ccc5c4C)n(CC4CC4)c3n2)cn1 (stereo partly drawn) [Example 307, 5-(2-{6-[(7R)-7-Amino-2-azabicyclo[2.2.1]heptane-2-carbonyl]-3-methylpyrazolo[1,5-a]pyridin-2-yl}-1-(cyclopropylmethyl)-1H-pyrrolo[2,3-b]pyridin-6-yl)-N-methylpyridine-2-carboxamide]
50 | COC(=O)Nc1ccc(-c2ccc3cc(-c4nn5cc(C(=O)N6CC7CCC6[C@@H]7N)ccc5c4C)n(CC4CC4)c3n2)cn1 (stereo partly drawn) [Example 308, Methyl N-[5-(2-{6-[(7R)-7-amino-2-azabicyclo[2.2.1]heptane-2-carbonyl]-3-methylpyrazolo[1,5-a]pyridin-2-yl}-1-(cyclopropylmethyl)-1H-pyrrolo[2,3-b]pyridin-6-yl)pyridin-2-yl]carbamate]
400 | Cc1c(-c2cc3ccc(-c4ccc5[nH]ncc5c4)nc3n2CC2CC2)nn2cc(C(=O)N3CCC[C@@H](N)C3)ccc12 [Example 309, (3R)-1-{2-[1-(Cyclopropylmethyl)-6-(1H-indazol-5-yl)-1H-pyrrolo[2,3-b]pyridin-2-yl]-3-methylpyrazolo[1,5-a]pyridine-6-carbonyl}piperidin-3-amine]
400 | Cc1c(-c2cc3ccc(-c4ccc5cn[nH]c5c4)nc3n2CC2CC2)nn2cc(C(=O)N3CCC[C@@H](N)C3)ccc12 [Example 310, (3R)-1-{2-[1-(Cyclopropylmethyl)-6-(1H-indazol-6-yl)-1H-pyrrolo[2,3-b]pyridin-2-yl]-3-methylpyrazolo[1,5-a]pyridine-6-carbonyl}piperidin-3-amine]
210 | Cc1c(-c2cc3ccc(-c4cccc5[nH]ncc45)nc3n2CC2CC2)nn2cc(C(=O)N3CCC[C@@H](N)C3)ccc12 [Example 311, (3R)-1-{2-[1-(Cyclopropylmethyl)-6-(1H-indazol-4-yl)-1H-pyrrolo[2,3-b]pyridin-2-yl]-3-methylpyrazolo[1,5-a]pyridine-6-carbonyl}piperidin-3-amine]
60 | Cc1c(-c2ccc3cc(-c4nn5cc(C(=O)N6CCC[C@@H](N)C6)ccc5c4C)n(CC4CC4)c3n2)cc(F)c2[nH]c(=O)ccc12 [Example 312, 6-(2-{6-[(3R)-3-Aminopiperidine-1-carbonyl]-3-methylpyrazolo[1,5-a]pyridin-2-yl}-1-(cyclopropylmethyl)-1H-pyrrolo[2,3-b]pyridin-6-yl)-8-fluoro-5-methyl-1,2-dihydroquinolin-2-one]
100 | Cc1c(-c2cc3ccc(-c4cccc(O)c4Cl)nc3n2CC2CC2)nn2cc(C(=O)N3CCC[C@@H](N)C3)ccc12 [Example 313, 3-(2-{6-[(3R)-3-Aminopiperidine-1-carbonyl]-3-methylpyrazolo[1,5-a]pyridin-2-yl}-1-(cyclopropylmethyl)-1H-pyrrolo[2,3-b]pyridin-6-yl)-2-chlorophenol]
40 | Cc1c(-c2cc3ccc(-c4cccc(O)c4F)nc3n2CC2CC2)nn2cc(C(=O)N3CCC[C@@H](N)C3)ccc12 [Example 314, 3-(2-{6-[(3R)-3-Aminopiperidine-1-carbonyl]-3-methylpyrazolo[1,5-a]pyridin-2-yl}-1-(cyclopropylmethyl)-1H-pyrrolo[2,3-b]pyridin-6-yl)-2-fluorophenol]
340 | Cc1c(-c2cc3ccc(-c4ccc5c(c4)C(=O)NC5)nc3n2CC2CC2)nn2cc(C(=O)N3CCC[C@@H](N)C3)ccc12 [Example 315]
250 | Cc1cc(-c2ccc3cc(-c4nn5cc(C(=O)N6CCC[C@@H](N)C6)ccc5c4C)n(CC4CC4)c3n2)ccc1C(N)=O [Example 316, 4-(2-{6-[(3R)-3-Aminopiperidine-1-carbonyl]-3-methylpyrazolo[1,5-a]pyridin-2-yl}-1-(cyclopropylmethyl)-1H-pyrrolo[2,3-b]pyridin-6-yl)-2-methylbenzamide]
510 | Cc1c(-c2cc3ccc(-c4ccc5c(c4)CNC5=O)nc3n2CC2CC2)nn2cc(C(=O)N3CCC[C@@H](N)C3)ccc12 [Example 317, 5-(2-{6-[(3R)-3-Aminopiperidine-1-carbonyl]-3-methylpyrazolo[1,5-a]pyridin-2-yl}-1-(cyclopropylmethyl)-1H-pyrrolo[2,3-b]pyridin-6-yl)-2,3-dihydro-1H-isoindol-1-one]
310 | Cc1c(-c2cc3ccc(N4CCOCC4)nc3n2CC2CC2)nn2cc(C(=O)N3CC4CCC3[C@@H]4N)ccc12 (stereo partly drawn) [Example 318, (7R)-2-{2-[1-(Cyclopropylmethyl)-6-(morpholin-4-yl)-1H-pyrrolo[2,3-b]pyridin-2-yl]-3-methylpyrazolo[1,5-a]pyridine-6-carbonyl}-2-azabicyclo[2.2.1]heptan-7-amine]
50 | Cc1c(-c2cc3ccc(N4CCOCC4=O)nc3n2CC2CC2)nn2cc(C(=O)N3CC4CCC3[C@@H]4N)ccc12 (stereo partly drawn) [Example 319, 4-(2-{6-[(7R)-7-Amino-2-azabicyclo[2.2.1]heptane-2-carbonyl]-3-methylpyrazolo[1,5-a]pyridin-2-yl}-1-(cyclopropylmethyl)-1H-pyrrolo[2,3-b]pyridin-6-yl)morpholin-3-one]
150 | Cc1c(-c2cc3ccc(N4CCC(S(C)(=O)=O)CC4)nc3n2CC2CC2)nn2cc(C(=O)N3CC4CCC3[C@@H]4N)ccc12 (stereo partly drawn) [Example 320, (7R)-2-{2-[1-(Cyclopropylmethyl)-6-(4-methanesulfonylpiperidin-1-yl)-1H-pyrrolo[2,3-b]pyridin-2-yl]-3-methylpyrazolo[1,5-a]pyridine-6-carbonyl}-2-azabicyclo[2.2.1]heptan-7-amine]
15000 | Cc1c(-c2cc3ccc(-c4ccc5cn[nH]c5c4)nc3n2CC2CC2)nn2cc(C(=O)N3C[C@H](N)C[C@@H](F)C3)ccc12 [Example 321, (3R,5R)-1-{2-[1-(Cyclopropylmethyl)-6-(1H-indazol-6-yl)-1H-pyrrolo[2,3-b]pyridin-2-yl]-3-methylpyrazolo[1,5-a]pyridine-6-carbonyl}-5-fluoropiperidin-3-amine]
500 | Cc1c(-c2cc3ccc(-c4cccc5[nH]ncc45)nc3n2CC2CC2)nn2cc(C(=O)N3C[C@H](N)C[C@@H](F)C3)ccc12 [Example 322, (3R,5R)-1-{2-[1-(Cyclopropylmethyl)-6-(1H-indazol-4-yl)-1H-pyrrolo[2,3-b]pyridin-2-yl]-3-methylpyrazolo[1,5-a]pyridine-6-carbonyl}-5-fluoropiperidin-3-amine]
140 | Cc1c(-c2cc3ccc(-c4ccc5[nH]ncc5c4)nc3n2CC2CC2)nn2cc(C(=O)N3C[C@H](N)C[C@@H](F)C3)ccc12 [Example 323, (3R,5R)-1-{2-[1-(Cyclopropylmethyl)-6-(1H-indazol-5-yl)-1H-pyrrolo[2,3-b]pyridin-2-yl]-3-methylpyrazolo[1,5-a]pyridine-6-carbonyl}-5-fluoropiperidin-3-amine]
110 | Cc1c(-c2ccc3cc(-c4nn5cc(C(=O)N6C[C@H](N)C[C@@H](F)C6)ccc5c4C)n(CC4CC4)c3n2)cc(F)c2[nH]c(=O)ccc12 [Example 324, 6-(2-{6-[(3R,5R)-3-Amino-5-fluoropiperidine-1-carbonyl]-3-methylpyrazolo[1,5-a]pyridin-2-yl}-1-(cyclopropylmethyl)-1H-pyrrolo[2,3-b]pyridin-6-yl)-8-fluoro-5-methyl-1,2-dihydroquinolin-2-one]
1540 | COC(=O)N(C)C1CCN(c2ccc3cc(-c4nn5cc(C(=O)N6C[C@H](N)C[C@@H](F)C6)ccc5c4C)n(CC4CC4)c3n2)CC1 [Example 325, Methyl N-[1-(2-{6-[(3R,5R)-3-amino-5-fluoropiperidine-1-carbonyl]-3-methylpyrazolo[1,5-a]pyridin-2-yl}-1-(cyclopropylmethyl)-1H-pyrrolo[2,3-b]pyridin-6-yl)piperidin-4-yl]-N-methylcarbamate]
200 | Cc1c(-c2cc3ccc(-c4ccc(F)c5[nH]ncc45)cc3n2CC2CC2)nn2cc(C(=O)N3CC4CCC3[C@@H]4N)ccc12 (stereo partly drawn) [Example 326, (7R)-2-{2-[1-(Cyclopropylmethyl)-6-(7-fluoro-1H-indazol-4-yl)-1H-indol-2-yl]-3-methylpyrazolo[1,5-a]pyridine-6-carbonyl}-2-azabicyclo[2.2.1]heptan-7-amine]
70 | Cc1c(-c2cc3ccc(-c4cccc5[nH]nc(F)c45)cc3n2CC2CC2)nn2cc(C(=O)N3CC4CCC3[C@@H]4N)ccc12 (stereo partly drawn) [Example 327, (7R)-2-{2-[1-(Cyclopropylmethyl)-6-(3-fluoro-1H-indazol-4-yl)-1H-indol-2-yl]-3-methylpyrazolo[1,5-a]pyridine-6-carbonyl}-2-azabicyclo[2.2.1]heptan-7-amine]
120 | Cc1c(-c2cc3ccc(-c4ccc(N5CCNC5=O)cc4)cc3n2CC2CC2)nn2cc(C(=O)N3CC4CCC3[C@@H]4N)ccc12 (stereo partly drawn) [Example 328, 1-[4-(2-{6-[(7R)-7-Amino-2-azabicyclo[2.2.1]heptane-2-carbonyl]-3-methylpyrazolo[1,5-a]pyridin-2-yl}-1-(cyclopropylmethyl)-1H-indol-6-yl)phenyl]imidazolidin-2-one]
50 | Cc1c(-c2cc3ccc(-c4ccc(N5CCCC5=O)cc4)cc3n2CC2CC2)nn2cc(C(=O)N3CC4CCC3[C@@H]4N)ccc12 (stereo partly drawn) [Example 329, 1-[4-(2-{6-[(7R)-7-Amino-2-azabicyclo[2.2.1]heptane-2-carbonyl]-3-methylpyrazolo[1,5-a]pyridin-2-yl}-1-(cyclopropylmethyl)-1H-indol-6-yl)phenyl]pyrrolidin-2-one]
150 | Cc1c(-c2cc3ccc(-c4ccc5cn[nH]c5c4F)cc3n2CC2CC2)nn2cc(C(=O)N3CC4CCC3[C@@H]4N)ccc12 (stereo partly drawn) [Example 330, (7R)-2-{2-[1-(Cyclopropylmethyl)-6-(7-fluoro-1H-indazol-6-yl)-1H-indol-2-yl]-3-methylpyrazolo[1,5-a]pyridine-6-carbonyl}-2-azabicyclo[2.2.1]heptan-7-amine]
